Assay results: patent US20150174213A1, “COMPOSITIONS COMPRISING SULFORAPHANE OR A SULFORAPHANE PRECURSOR AND URSOLIC ACID” (Nutramax Laboratories, Inc., priority 2012, published 2015)

Assays:
myrosinase [1] = assay: Conversion of glucoraphanin to sulforaphane in Simulated Intestinal Fluid (Example 5); type: biochemical, broccoli; conditions: 0.25 to 1.00 mmol/Liter ascorbic acid, 38° C., FIG. 4
Procedure: Simulated Intestinal Fluid (SIF) powder, a commercially supplied concentrate closely approximating the human intestinal content in terms of composition, pH and ionic strength, was used. The experiment utilized a USP Dissolution Apparatus 2 (paddles), where into six dissolution vessels 500 mL of Simulated Intestinal Fluid was dispensed, along with 150 mg of freeze-dried broccoli sprout powder as a source of myrosinase. […] Aliquots were withdrawn every 15 minutes, and assayed for sulforaphane.

mammary tumors = conditions: Sprague-Dawley rats; cited from earlier work
mammary epithelium = conditions: oral administration, Sprague-Dawley rats; cited from earlier work
myrosinase [2] = assay: Equimolar conversion of glucoraphanin to sulforaphane by myrosinase with ascorbic acid (Example 4); type: biochemical, broccoli; conditions: control sample, without ascorbic acid
Procedure: A two-part experiment was conducted to further elucidate the role of ascorbic acid in modulating myrosinase activity. […] A control sample contained no ascorbic acid, and the enzymatic conversion proceeded unassisted by a co-factor. PART 1. […] PART 2. While keeping the amount of broccoli seed extract fixed at 250 mg, the concentration of ascorbic acid was varied from 0.4 mmol/Liter to 3.8 mmol/Liter.

Compound: O=C1O[C@H]([C@@H](O)CO)C(O)=C1O [Ascorbic Acid, Ascorbic acid]
- Yield of sulforaphane versus ascorbic acid concentration (myrosinase [1]): direct correlation between larger yield of sulforaphane and higher concentrations of ascorbic acid

Compound: C[S+]([O-])CCCCN=C=S (centres unmarked) [SFN, 1-isothiocyanato-4-methylsulfinylbutane]
- Blocking the formation of mammary tumors (mammary tumors): effective
- Elevated immunostaining of the heme oxygenase-1 (HO-1) enzyme (mammary epithelium): 4 fold
- Increase in NAD(P)H:quinine oxidoreductase (NQO1) enzymatic activity (mammary epithelium): 3 fold

Compound: C[S+]([O-])CCCC/C(=N\OS(=O)(=O)O)S[C@@H]1O[C@H](CO)[C@@H](O)[C@H](O)[C@H]1O (some centres unmarked) [glucoraphanin, 4-methylsulfinylbutyl glucosinolate]
- Stoichiometry of conversion of glucoraphanin to sulforaphane (myrosinase [2]): equimolar conversion
